For orientation: mortality means the percentage killed.

Assay [1] has as its system Culex quinquefasciatus. Nature of the assay: Toxicity against third instar larve of Culex quinquefasciatus assessed as mortality at 100 ugcm'-3 after 24 hr. The assay is classed as functional.
Assay [2] deals with Culex quinquefasciatus. Nature of the assay: Toxicity against third instar larve of Culex quinquefasciatus after 24 hr. It counts as functional.

SMILES strings stand for the structures. Calls of active or inactive are those of the source. No cut-off for these calls is given here.

In the case of `O=[N+]([O-])c1ccc(N/N=C(/C=C/c2ccccc2)c2ccccc2)c([N+](=O)[O-])c1`, the mortality entry in the assay on Culex quinquefasciatus [1] was “inactive”. This compound came in with an LC50 in the assay with Culex quinquefasciatus [2] of 2531.3 umol/dm3.
With `O=C(/C=C/c1ccco1)c1ccccc1O`, the mortality with Culex quinquefasciatus [1] is 100%. The LC50 in the assay with Culex quinquefasciatus [2] is 19 umol/dm3.
Turning to `O=C(/C=C/C=C/c1ccccc1)c1ccccc1`, the LC50 with Culex quinquefasciatus [2] turned out to be 437 umol/dm3.
In the case of `O=C(/C=C/c1ccccc1)c1ccccc1O` [2'-HYDROXYCHALCONE], the mortality in the assay with Culex quinquefasciatus [1] was found to be 100%. This compound also returned an LC50 with Culex quinquefasciatus [2] of 55 umol/dm3.
In turn, `O=C(/C=C/c1ccc([N+](=O)[O-])cc1)c1ccccc1` gave an LC50 with Culex quinquefasciatus [2] of 959.5 umol/dm3.
As for `O=C(/C=C/c1ccc2c(c1)OCO2)c1ccccc1`, in the assay on Culex quinquefasciatus [2], the LC50 is recorded as 5 umol/dm3.
For the compound `O=C(/C=C/c1ccccc1O)c1ccccc1`, the mortality with Culex quinquefasciatus [1] came out at 100%. The LC50 in the assay with Culex quinquefasciatus [2] stood at 104 umol/dm3.
For `O=[N+]([O-])c1ccc(NN=C(/C=C/c2ccccc2)/C=C/c2ccccc2)c([N+](=O)[O-])c1`, in that order: “inactive” and 2638.2 umol/dm3.
Compound `CC(/C=C/c1ccccc1)=N\NC(N)=O` showed an LC50 in the assay with Culex quinquefasciatus [2] of 2087.9 umol/dm3.
For `O=C(/C=C/c1ccc([N+](=O)[O-])cc1)c1ccccc1O`, the LC50 in the assay with Culex quinquefasciatus [2] is 881.6 umol/dm3.
The same measure, in the same setting: next, `C(=C\c1ccccc1)/C(=N/Nc1ccccc1)c1ccccc1`: 2134.5 umol/dm3; `O=C(/C=C/c1ccc(Cl)cc1)c1ccccc1` [4-CHLORO CHALCONE]: 5 umol/dm3; `CC(/C=C/c1ccccc1)=N\Nc1ccccc1`: 465 umol/dm3.
Still for that read-out and setting: next, `O=C(/C=C/C=C/c1ccccc1)c1ccccc1O`: 1121.1 umol/dm3.
The same measure, in the same setting: next, `O=C(/C=C/c1cccc([N+](=O)[O-])c1)c1ccc(O)cc1`: 89 umol/dm3; `O=C(/C=C/c1ccccc1)c1ccc(O)cc1` [4'-HYDROXYCHALCONE]: 238 umol/dm3; `COc1cccc(/C=C/C(=O)c2ccccc2)c1-c1ccc(O)cc1`: 1474 umol/dm3.
Compound `O=C(/C=C/c1cccc([N+](=O)[O-])c1)c1ccccc1O` yielded an LC50 in the assay on Culex quinquefasciatus [2] of 526.6 umol/dm3.
`CC(/C=C/c1ccccc1)=N/O` showed an LC50 in the assay on Culex quinquefasciatus [2] of 345 umol/dm3.
Consider `CC(/C=C/c1ccccc1)=N\Nc1ccc([N+](=O)[O-])cc1[N+](=O)[O-]`, for which the mortality result with Culex quinquefasciatus [1] was “inactive”. For the same compound, in the assay with Culex quinquefasciatus [2], the LC50 came to 2344.1 umol/dm3.
In the case of `O=C(/C=C/c1cccc([N+](=O)[O-])c1)c1ccccc1`, the LC50 in the assay on Culex quinquefasciatus [2] was found to be 994.4 umol/dm3.
Turning to `O=C(/C=C/c1ccc(Cl)cc1)c1ccccc1O`, the mortality with Culex quinquefasciatus [1] stood at 100%. In the assay with Culex quinquefasciatus [2], the LC50 is on record as 81 umol/dm3.
The matching figures for `O=C(/C=C/c1ccccc1)c1ccccc1` [CHALCONE]: 100% and 90 umol/dm3.
For the compound `COc1cccc(/C=C/C(=O)c2ccccc2O)c1-c1ccc(O)cc1`, the LC50 in the assay on Culex quinquefasciatus [2] was 684.9 umol/dm3.
In turn, `O=C(/C=C/c1ccccc1)/C=C/c1ccccc1` had an LC50 with Culex quinquefasciatus [2] of 2064.4 umol/dm3.
Still for that read-out and setting: next, `O=C(/C=C/c1ccc2c(c1)OCO2)c1ccccc1O`: 986.1 umol/dm3.
In turn, `O=C(/C=C/c1ccc([N+](=O)[O-])cc1)c1ccc(O)cc1` returned an LC50 in the assay on Culex quinquefasciatus [2] of 91 umol/dm3.

Source of the values: ChEMBL document CHEMBL3044882, “Mosquito larvicidal studies of some chalcone analogues and their derived products: structureactivity relationship analysis” (2011).
